How the values were obtained:
[1] = test system: Malaria Mosquito; assay: Malaria Mosquito adult test, treated slide; assay type: in vivo, Anopheles quadrimaculatus Say; details: Anopheles quadrimaculatus, 24 h, adults, one day, read-out: % Kill, Malaria Mosquito
Experimental: Malaria Mosquito -- Anopheles quadrimaculatus Say -- Adult Test
Ten ppm. acetone solutions of test compounds are poured into wide-mouth 2-ounce jars each containing a microscope slide. The slides are removed from the test solution with forceps and laid horizontally to dry on a wide-mouth 4-ounce bottle. When dry, they are placed in the same 4-ounce bottle and 10 4-to 5-day-old mosquitoes of mixed sexes are added to each bottle. A piece of cotton gauze held on by an elastic band serves as a lid and wad of cotton soaked in 10% honey solution serves as food. Mortality counts are made after one day at 80°F., 50% r.h.

[2] = Mammalian toxicity, LD50 in mice; assay type: in vivo, male albino mice of the CFI strain; details: mouse, in vivo; male albino mice, corn oil, 0.5 ml./kg.
Experimental: (§1) For the tests reported in Table II, 20 male albino mice of the CFI strain, weighing approximately 18 grams to 20 grams are selected. The phosphates are readied for administration by preparing a solution or dispersion in corn oil (Mazola), the concentration of which is adjusted so that the total volume of the dose is 0.5 ml./kg. in every case. The initial solution is prepared by deciding upon the maximum dosage in mg./kg. to be administered and preparing 10 ml. of this solution of such a concentration that the desired dosage in mg./kg. is delivered when 0.5 ml. of the solution is administered for 20 grams of mouse body weight. Serial dilutions differing by a factor of two are then prepared for each lower dosage level. LD50 stands for the lethal dose in mg./kg. which kills 50% of the mice.

[3] = test system: Tarnished Plant Bug; assay: Tarnished Plant Bug, treated cotton leaf, 2-day mortality; assay type: in vivo, Lygus Lineolaris (Palisot de Beauvois); details: Lygus lineolaris, 48 h, 2 days, read-out: % Kill, Tarnished Plant Bug
Experimental: Tarnished Plant Bug -- Lygus Lineolaris (Palisot de Beauvois)
A cotton plant with two true leaves expanded is dipped for 3 seconds with agitation in a 35/65% water/acetone mixture containing 100 ppm. of test compound and set in the hood to dry. One leaf is removed and placed in an 8-ounce waxed cup containing a wet 2-inch dental wick and 10 adult tarnished plant bugs, and a clear plastic lid is snapped on. After 2 days at 80°F., 50% r.h., mortality counts are made.

[4] = test system: Mexican Bean Beetle; assay: Mexican Bean Beetle, dipped lima bean leaves; assay type: in vivo, Epilachna varivestis Mulsant; details: Epilachna varivestis, read-out: % Kill, Mexican Bean Beetle
Description: Mexican Bean Beetle -- Epilachna varivestis Mulsant
Sieva lima bean plants (two per pot) with primary leaves 3 to 4 inches long, are dipped in a 35/65% water/acetone mixture containing 100 ppm. of test compound and set in the hood to dry. One leaf is removed from a plant and placed in a 4-inch petri dish containing a moist filter paper on the bottom and 10 last-instar larvae (13 days from hatching). The day after treatment, another leaf is removed from the plant and fed to the larvae after removing the remains of the original leaf. Two days after treatment, the third leaf is fed to the larvae, this usually being the last needed. The fourth leaf is used on the third day after treatment if the larvae have not finished feeding. The test is now set aside and held until adults have emerged, usually in about nine days after treatment began. After emergence is complete, each dish is examined for dead larvae, pupae or adults; deformed pupae or adults; larval-pupal intermediates or pupal-adult intermediates; or any other interference with normal molting, transformation and emergence of pupae or adults.

[5] = test system: Housefly; assay: Housefly feeding test in sugar water; assay type: in vivo, Musca domestica Linneaus; details: Musca domestica; 5 ppm in sugar water; counts after 1 day and 3 days; read-out: % Kill, Housefly
Experimental: Housefly -- Musca domestica Linneaus
Groups of 25 adult female houseflies three to 5 days old are lightly anesthetized with CO2, placed in wide-mouthed pint mason jars, and covered with a screen cap. The test compound is a 100 ppm. 35/65% water/acetone solution. Two milliliters of this is pipetted into a 10-dram vial and diluted to 40 ml. with 10% sugar solution, giving a final concentration of 5 ppm. in sugar water. The mouth of the vial is covered with a single layer of cheesecloth, inverted and placed on the screen cap of the fly jar, so that the flies can feed on the solution through the screen. Mortality counts are made after 1 day and 3 days at 80°F., 50% r.h.

[6] = test system: mice; assay: Mammalian toxicity, LD50 in mice; assay type: in vivo, male albino mice of the CFI strain; details: versus O,O-diethyl S-(tert-butylsulfinyl)methyl phosphorodithioate
Experimental: as §1

[7] = test system: insects; assay: Insecticidal activity compared with art compound; assay type: in vivo; details: versus O,O-diethyl S-(tert-butylsulfinyl)methyl phosphorodithioate

| SMILES | mortality at 1 ppm [1] [%] | mortality at 10 ppm [1] [%] | LD50 [2] [mg/kg] | mortality at 100 ppm [3] [%] | mortality at 10 ppm [4] [%] | mortality at 100 ppm [4] [%] | mortality at 5 ppm [5] [%] | toxicity to mammals (mice) relative to art compound [6] | insecticidal activity relative to art compound [7] |
| --- | --- | --- | --- | --- | --- | --- | --- | --- | --- |
| CCOP(=O)(OCC)SC[S+]([O-])C(C)(C)C (stereo not drawn) [O,O-diethyl S-(tert-butylsulfinyl)methyl Phosphorothioate] | 40 | 100 | 1.1 | 100 | 100 | 100 | 100 |  |  |
| CCOP(=S)(OCC)SC[S+]([O-])C(C)(C)C (stereo not drawn) [O,O-diethyl S-(tert-butylsulfinyl)methyl phosphorodithioate, reference compound] | 0 | 80 | 3.4 | 100 | 80 | 90 | 100 |  |  |
| CCOP(=S)(OCC)SCS(=O)(=O)C(C)(C)C [O,O-diethyl S-(tert-butylsulfonyl)methyl Phosphorodithioate] | 50 | 100 | 14 | 100 |  | 100 | 100 | much less toxic to mammals (mice) than the art compound | equal to, and in some cases superior to, this art compound |
| CCOP(=O)(OCC)SCS(=O)(=O)C(C)(C)C [O,O-diethyl S-(tert-butylsulfonyl)methyl Phosphorothioate] | 0 | 50 | 3.4 | 100 | 70 | 90 | 100 |  |  |

Source: patent US3939263A, “Methods of combatting insects and acarina using oxygenated derivatives of S-(tert-bulythio)methyl O,O-diethyl phosphorodithioate and phosphorothioate” (priority 1974, dated 1976)
